Source: article PMC10489073 (Molecules, 2023)

Columns and labels:
[1] = Subacute toxicity experiment; type: in vivo; conditions: SD rats, male and female, 0.006, 0.02 and 0.06 mmol/kg p.o. twice a week, 30 days
Procedure: The animal experiments were conducted under the guidelines of the “Regulations for the Administration of Affairs Concerning Experimental Animals” (revised 2017, State Council No. 676). For the subacute toxicity study, 12 male and 12 female SD rats (purchased from the Weifang Medical University) were randomly divided into three treatment groups and a control group (n = 6, half male and half female). The rats in treatment groups were given 0.06 mmol/kg (p.o. BIW), 0.02 mmol/kg (p.o. BIW), and 0.006 mmol/kg (p.o. BIW) BC-05, respectively, for 30 days, while the rats in control groups were treated with the same volume of a vehicle solution. The rats were weighed each day and dissected at day 30. Behavioral abnormalities such as lethargy, ruffled fur, anorexia, clonic convulsion, and diarrhea were recorded throughout the entire experimental period.

[2] = Acute toxicity experiment (single oral dose); type: in vivo; conditions: for Survival Animals: 7 days, n = 10
Text: The mouse mortality was monitored daily and recorded up to 7 days after treatment.

[3] = system: U251; experiment: Cell proliferation analysis (MTT); type: cell-based; conditions: Homo sapiens, U-251, 48 h, read-out: Anti-proliferative activity IC50, U251
Procedure: (§1) All tumor cell lines in the current research were grown in a certain growth medium containing 10% FBS and 1% (v/v/v) penicillin–streptomycin–amphotericin at 37 °C in 5% CO2. Cells were seeded into 96-well plates at a density of 8 × 10^3 cells per well for tumor adherent cells and 2 × 10^4 cells per well for tumor-suspended cells in a final volume of 100 μL. After 12 h, 100 μL of various concentrations of compounds was added to each and incubated for 48 h. A 0.5% MTT solution was added per well before the intermixture was incubated for another 4 h, and formazan formed from MTT was extracted by adding […] of DMSO rocking for 15 min. Absorbance was measured at 570 nm using a Spark multimode microplate from Tecan. The IC50 values were calculated according to the inhibition ratios.

[4] = system: HEL; experiment: Cell proliferation analysis (MTT); type: cell-based; conditions: Homo sapiens, 48 h, read-out: Anti-proliferative activity IC50, HEL
Procedure: as §1

[5] = system: SP2; experiment: Cell proliferation analysis (MTT); type: cell-based; conditions: 48 h, read-out: Anti-proliferative activity IC50, SP2
Procedure: as §1

[6] = system: PC3; experiment: Cell proliferation analysis (MTT); type: cell-based; conditions: Homo sapiens, PC-3, 48 h, read-out: Anti-proliferative activity IC50, PC3
Procedure: as §1

[7] = system: RPMI-8266; experiment: Cell proliferation analysis (MTT); type: cell-based; conditions: RPMI8266, 48 h, read-out: Anti-proliferative activity IC50, RPMI-8266
Procedure: as §1

[8] = system: MDA-MB-231; experiment: Cell proliferation analysis (MTT); type: cell-based; conditions: Homo sapiens, 48 h, read-out: Anti-proliferative activity IC50, MDA-MB-231
Procedure: as §1

[9] = system: Hela; experiment: Cell proliferation analysis (MTT); type: cell-based; conditions: Homo sapiens, 48 h, read-out: Anti-proliferative activity IC50, Hela
Procedure: as §1

[10] = system: ARP-1; experiment: Cell proliferation analysis (MTT); type: cell-based; conditions: 48 h, read-out: Anti-proliferative activity IC50, ARP-1
Procedure: as §1

[11] = system: KG1; experiment: Cell proliferation analysis (MTT); type: cell-based; conditions: Homo sapiens, KG-1, 48 h, read-out: Anti-proliferative activity IC50, KG1
Procedure: as §1

[12] = system: MM.1S; experiment: Cell proliferation analysis (MTT); type: cell-based; conditions: Homo sapiens, MM1.S, 48 h, read-out: Anti-proliferative activity IC50, MM.1S
Procedure: as §1

[13] = system: A2780; experiment: Cell proliferation analysis (MTT); type: cell-based; conditions: Homo sapiens, 48 h, read-out: Anti-proliferative activity IC50, A2780
Procedure: as §1

[14] = system: HCT116; experiment: Cell proliferation analysis (MTT); type: cell-based; conditions: Homo sapiens, HCT-116, 48 h, read-out: Anti-proliferative activity IC50, HCT116
Procedure: as §1

[15] = system: U266; experiment: Cell proliferation analysis (MTT); type: cell-based; conditions: Homo sapiens, U-266, 48 h, read-out: Anti-proliferative activity IC50, U266
Procedure: as §1

[16] = system: HT-29; experiment: Cell proliferation analysis (MTT); type: cell-based; conditions: Homo sapiens, 48 h, read-out: Anti-proliferative activity IC50, HT-29
Procedure: as §1

[17] = system: P21WAF1/Cip1 in MM1.S cells; experiment: Western blot analysis, P21; type: cell-based; conditions: 24 h
Procedure: MM1.S cells were seeded in 6-well plates with a density of 2.5 × 10^6 cells/well. Then, the cells were cultured with 1, 2, and 4 μM BC-05 and 10 nM ixazomib, respectively. After incubation for 24 h, the cells were collected, and total proteins were extracted via RIPA containing a 2% protease inhibitor cocktail. Cell lysates were centrifugated at 4 °C, 12,000 rpm for 15 min, and the supernatants were collected and quantified with BCA assay. After being boiled at 100 °C for 10 min in a NuPAGE lithium dodecyl sulfate (LDS) sample buffer (5X), equivalent samples were separated by 12% sodium dodecyl-sulfate polyacrylamide gel electrophoresis at 120 V, transferred to immune-blot poly(vinylidene fluoride) (PVDF) membranes (Merck Millipore, Burlington, MA, USA) at 4 °C and then blocked by 5% non-fat milk in TBST for an hour. The membranes were incubated overnight at 4 °C with certain primary antibodies, which were deliquates by an antibody dilution buffer (Boster Bio, Pleasanton, CA, USA) and then washed with TBST. After incubating with a horseradish (HRP)-conjugated secondary antibody for 1 h at room temperature, the membranes were washed five times with TBST for 5 min. The images were visualized on the Tanon-5200 Chemiluminescent Imaging System via luminol reaction. […]

CC(C)C[C@H](NC(=O)[C@@H](O)[C@H](N)Cc1ccccc1)B1OC(=O)C(CC(=O)O)(CC(=O)O)O1 [BC-05, 2,2′-(2-((R)-1-((2S,3R)-3-amino-2-hydroxy-4-phenylbutanamido)-3-methylbutyl)-5-oxo-1,3,2-dioxaborolane-4,4-diyl)diacetic acid]
body weight loss [1]: did not exhibit any significant body weight loss | LD50 at 7 days ([2]; both sexes, Kunming, mouse, in vivo, single oral dose, healthy mice): 400 µmol/kg | Survival Animals ([2]; single oral 0.27 mmol/kg): 10/10 | Survival Animals ([2]; single oral 0.36 mmol/kg): 6/10 | Survival Animals ([2]; single oral 0.49 mmol/kg): 4/10 | Survival Animals ([2]; single oral 0.65 mmol/kg): 1/10 | Survival Animals ([2]; single oral 0.86 mmol/kg): 0/10 | IC50 [3]: 47.5 ± 11.9 µM | IC50 [4]: 13.3 ± 2.81 µM | IC50 [5]: 14.7 ± 4.91 µM | IC50 [6]: 47.4 ± 4.22 µM | IC50 [7]: 15.1 ± 2.23 µM | IC50 [8]: 13.3 ± 0.49 µM | IC50 [9]: 83.1 ± 8.79 µM | IC50 [10]: 10.2 ± 1.23 µM | IC50 [11]: 41.6 ± 4.11 µM | IC50 [12]: 1.53 ± 0.24 µM | IC50 [13]: 33.7 ± 0.99 µM | IC50 [14]: 86.7 ± 7.34 µM | IC50 [15]: 13.7 ± 1.43 µM | IC50 [16]: 12.5 ± 1.21 µM | P21WAF1/Cip1 level (Western blot) [17]: significantly upregulates
